Marks after values point to notes of the source that are not given here.
Key:
CYP2D6 = experiment: Isolated perfused rat liver, tramadol O-demethylation to M1 after MDMA or paroxetine pretreatment; format: in vivo; settings: tramadol 1 µg/mL, n=4; for Metabolite ratio M1 % decrease compared to the control group: AUC0-t M1 / AUC0-t tramadol
CYP3A4 = experiment: Isolated perfused rat liver, tramadol N-demethylation to M2 after MDMA or paroxetine pretreatment; format: in vivo; settings: regular doses of MDMA (1-10 mg/kg)
[1] = Isolated perfused rat liver, tramadol AUC in perfusate after MDMA or paroxetine pretreatment; format: in vivo; settings: MDMA 1, 5 and 10 mg/kg i.p.; tramadol 1 µg/mL
[2] = parameters: method as in doi:10.1007/s002130000545, PMID 12404536, PMID 12869661; settings: following ecstasy consumption; cited from earlier work

Row | SMILES | AUC M1 % decrease compared to the control group (CYP2D6; paroxetine 0.266 mg/kg oral, three consecutive days, listed as PXL) | Metabolite ratio M1 % decrease compared to the control group (CYP2D6; paroxetine 0.266 mg/kg oral, three days) [%] | Metabolite ratio M1 % decrease compared to the control group (CYP2D6; paroxetine 0.266 mg/kg oral, three days, listed as PXL) | AUC M1 % decrease compared to the control group (CYP2D6; MDMA 1 mg/kg i.p. 1 h before liver perfusion) [%] | Metabolite ratio M1 % decrease compared to the control group (CYP2D6; MDMA 1 mg/kg i.p.) [%] | AUC M1 % decrease compared to the control group (CYP2D6; MDMA 10 mg/kg i.p. 1 h before liver perfusion) [%] | Metabolite ratio M1 % decrease compared to the control group (CYP2D6; MDMA 10 mg/kg i.p.) [%] | CYP3A4 activity inhibition (CYP3A4) | tramadol AUC compared to the control group [1] | duration of positive psychological effects [2]
1 | Fc1ccc([C@@H]2CCNC[C@H]2COc2ccc3c(c2)OCO3)cc1 [paroxetine] | 40* % | 30 | 30* % |  |  |  |  |  |  | 
2 | CNC(C)Cc1ccc2c(c1)OCO2 (stereo not shown) [MDMA, methylenedioxymethamphetamine] |  |  |  | 38 | 29 | 50 | 45 | cannot inhibit | no significant differences | 3-6 hours

— article PMC8421619, “Investigation of MDMA Inhibitory Effect on CytochromeP450 3A4 in Isolated Perfused Rat Liver Model Using Tramadol” (Advanced Pharmaceutical Bulletin, 2020)
